# Measurements reported in ChEMBL document CHEMBL6120962, “New Mitochondria-Targeted Fisetin Derivative Compromises Mitophagy and Limits Survival of Drug-Induced Senescent Breast Cancer Cells” (J Med Chem, 2024).
# Calls of active or inactive are those of the source. No cut-off for these calls is given here.
# Columns and labels:
# HCC1428 [1] = assay: Induction of mitochondrial dysfunction in human HCC1428 cells assessed as increase in proton leak at 5 uM incubated for 6 hrs by real time analysis; type: functional, cell-based
# MCF-10F [2] = assay: Induction of mitochondrial dysfunction in human MCF-10F cells assessed as increase in proton leak at 5 uM incubated for 6 hrs by real time analysis; type: functional, cell-based
# [3] = target: T1, Mixed lineage kinase domain-like protein (Homo sapiens) (UniProt Q8NB16); assay: Induction of MLKL phosphorylation in human HCC1428 cells at 1 to 5 uM incubated for 24 hrs by Western blot analysis; type: cell-based; conditions: dose 1-5 µM
# T1 sequence (whole entry): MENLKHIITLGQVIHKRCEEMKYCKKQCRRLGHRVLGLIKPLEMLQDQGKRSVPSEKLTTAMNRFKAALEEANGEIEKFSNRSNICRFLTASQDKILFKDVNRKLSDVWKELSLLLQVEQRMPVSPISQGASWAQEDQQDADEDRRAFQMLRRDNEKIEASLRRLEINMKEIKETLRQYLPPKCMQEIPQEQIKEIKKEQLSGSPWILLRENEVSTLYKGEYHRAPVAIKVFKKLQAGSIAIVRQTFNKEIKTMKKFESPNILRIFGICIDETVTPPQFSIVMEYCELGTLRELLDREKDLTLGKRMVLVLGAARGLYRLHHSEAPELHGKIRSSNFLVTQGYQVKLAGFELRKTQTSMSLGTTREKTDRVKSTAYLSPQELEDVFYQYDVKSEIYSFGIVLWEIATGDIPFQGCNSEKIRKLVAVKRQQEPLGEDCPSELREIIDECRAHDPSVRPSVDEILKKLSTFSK
# HCC1428 [4] = assay: Induction of ubiquitin-dependent mitophagy in tamoxifen-induced senescent human HCC1428 cells assessed as increase in PINK1 level at 5 uM by immunostaining based imaging cytometric analysis; type: functional, cell-based
# ZR-75-30 [5] = assay: Induction of oxidative stress in tamoxifen-induced senescent human ZR-75-30 cells assessed as increase in cytosolic SOD1 level at 1 to 5 uM incubated for 24 hrs by MitoSOX red superoxide indicator based fluorescence analysis; type: functional, cell-based; conditions: dose 1-5 µM
# HCC1500 [6] = assay: Anticancer activity against ER-positive human HCC1500 cells assessed as effect on metabolic activity upto 10 uM incubated for 24 hrs by MTT assay; type: functional, cell-based
# HCC1428 [7] = assay: Induction of autophagy in tamoxifen-induced senescent human HCC1428 cells assessed as increase in VPS34 level at 1 to 5 uM by immunostaining based imaging cytometric analysis; type: functional, cell-based; conditions: dose 1-5 µM
# CAMA-1 [8] = assay: Anticancer activity against ER-positive human CAMA-1 cells assessed as effect on metabolic activity upto 10 uM incubated for 24 hrs by MTT assay; type: functional, cell-based
# MCF-10F [9] = assay: Induction of mitochondrial dysfunction in tamoxifen-induced senescent human MCF-10F cells assessed as decrease in spare respiratory capacity at 5 uM incubated for 6 hrs by real-time analysis; type: functional, cell-based
# HCC1428 [10] = assay: Effect on Bcl-rambo protein level in tamoxifen-induced senescent human HCC1428 cells at 1 to 5 uM incubated for 24 hrs by Western blot analysis; type: functional, cell-based; conditions: dose 1-5 µM
# CAMA-1 [11] = assay: Induction of senescence in human CAMA-1 cells assessed as […] in beta-galactosidase activity at 5 uM incubated for 24 hrs by immunostaining based imaging cytometric analysis; type: functional, cell-based
# HCC1428 [12] = assay: Induction of oxidative stress in tamoxifen-induced senescent human HCC1428 cells assessed as increase in mitochondrial superoxide production at 1 to 5 uM incubated for 24 hrs by MitoSOX red superoxide indicator based fluorescence analysis; type: functional, cell-based; conditions: dose 1-5 µM
# HCC1428 [13] = assay: Induction of senescence in human HCC1428 cells assessed as increase in IL-8 level at 5 uM incubated for 24 hrs by immunostaining based imaging cytometric analysis; type: functional, cell-based
# HCC1428 [14] = assay: Effect on phosphorylated to unphosphorylated AKT ratio in tamoxifen-induced senescent human HCC1428 cells assessed as decrease in phosphorylated AKT level at 1 to 5 uM incubated for 24 hrs by Western blotting analysis; type: functional, cell-based; conditions: dose 1-5 µM
# MCF-10F [15] = assay: Induction of mitochondrial dysfunction in tamoxifen-induced senescent human MCF-10F cells assessed as decrease in ATP production at 5 uM incubated for 6 hrs by real-time analysis; type: functional, cell-based
# BJ = assay: Cytotoxicity against human BJ cells assessed as effect on metabolic activity at 1 to 10 uM incubated for 24 hrs by MTT assay; type: toxicity, cell-based; conditions: dose 1-10 µM
# HCC1428 [16] = assay: Upregulation of BECN1 level in tamoxifen-induced senescent human HCC1428 cells at 1 to 5 uM by immunostaining based imaging cytometric analysis; type: functional, cell-based; conditions: dose 1-5 µM
# [17] = Cytotoxicity against human MCF-10F cells assessed as effect on metabolic activity at 1 to 10 uM incubated for 24 hrs by MTT assay; type: toxicity, cell-based; conditions: dose 1-10 µM
# HCC1428 [18] = assay: Induction of apoptosis in tamoxifen-induced senescent human HCC1428 cells assessed as decrease in HSP90 level incubated for 24 hrs by immunostaining based imaging cytometric analysis; type: functional, cell-based
# HCC1428 [19] = assay: Induction of mitochondrial dysfunction in tamoxifen-induced senescent human HCC1428 cells assessed as decrease in ATP production at 5 uM incubated for 6 hrs by real-time analysis; type: functional, cell-based
# MCF-10F [20] = assay: Induction of mitochondrial dysfunction in human MCF-10F cells assessed as decrease in spare respiratory capacity at 5 uM incubated for 6 hrs by real time analysis; type: functional, cell-based
# HCC1428 [21] = assay: Induction of mitochondrial dysfunction in tamoxifen-induced senescent human HCC1428 cells assessed as decrease in spare respiratory capacity at 5 uM incubated for 6 hrs by real-time analysis; type: functional, cell-based
# HCC1428 [22] = assay: Induction of senescence in human HCC1428 cells assessed as […] in beta-galactosidase activity at 5 uM incubated for 24 hrs by immunostaining based imaging cytometric analysis; type: functional, cell-based
# CAMA-1 [23] = assay: Induction of oxidative stress in tamoxifen-induced senescent human CAMA-1 cells assessed as increase in mitochondrial superoxide production at 1 to 5 uM incubated for 24 hrs by MitoSOX red superoxide indicator based fluorescence analysis; type: functional, cell-based; conditions: dose 1-5 µM
# HCC1500 [24] = assay: Induction of senescence in human HCC1500 cells assessed as increase in IL-8 level at 5 uM incubated for 24 hrs by immunostaining based imaging cytometric analysis; type: functional, cell-based
# CAMA-1 [25] = assay: Induction of apoptosis in human CAMA-1 cells assessed as phosphatidylserine externalization at 1 to 5 uM incubated for 24 hrs by Annexin V-FITC staining based flow cytometric analysis; type: functional, cell-based; conditions: dose 1-5 µM
# MCF-10F [26] = assay: Induction of mitochondrial dysfunction in tamoxifen-induced senescent human MCF-10F cells assessed as decrease in coupling efficiency at 5 uM incubated for 6 hrs by real-time analysis; type: functional, cell-based
# Mitochondrial membrane = assay: Induction of mitochondrial membrane potential depolarization in human HCC1500 cells at 1 uM incubated for 24 hrs by 7-AAD staining based flow cytometric analysis; type: cell membranes
# CAMA-1 [27] = assay: Induction of senescence in human CAMA-1 cells assessed as increase in IL-8 level at 5 uM incubated for 24 hrs by immunostaining based imaging cytometric analysis; type: functional, cell-based
# MCF-10F [28] = assay: Induction of apoptosis in tamoxifen-induced senescent human MCF-10F cells assessed as decrease in Bcl2 level at 1 to 5 uM incubated for 24 hrs by Western blot analysis; type: functional, cell-based; conditions: dose 1-5 µM
# ZR-75-30 [29] = assay: Induction of AMPK phosphorylation in tamoxifen-induced senescent human ZR-75-30 cells incubated for 24 hrs by immunostaining based imaging cytometric analysis; type: cell-based; conditions: filed as activator
# HCC1428 [30] = assay: Induction of mitochondrial dysfunction in tamoxifen-induced senescent human HCC1428 cells assessed as increase in proton leak at 5 uM incubated for 6 hrs by real-time analysis; type: functional, cell-based
smiles,measurement,setting,value
CC(=O)Oc1ccc2c(=O)c(OCCCC[P+](c3ccccc3)(c3ccccc3)c3ccccc3)c(-c3ccc4c(c3)OC(c3ccccc3)(c3ccccc3)O4)oc2c1.[I-],Activity,HCC1428 [1],Active
same,Activity,MCF-10F [2],inactive
same,Activity,[3],inactive
same,Activity,HCC1428 [4],Active
same,Activity,ZR-75-30 [5],Active
same,Activity,HCC1500 [6],Active
same,Activity,HCC1428 [7],Active
same,Activity,CAMA-1 [8],Active
same,Activity,MCF-10F [9],inactive
same,Activity,HCC1428 [10],inactive
same,Activity,CAMA-1 [11],Active
same,Activity,HCC1428 [12],Active
same,Activity,HCC1428 [13],Active
same,Activity,HCC1428 [14],inactive
same,Activity,MCF-10F [15],inactive
same,Activity,BJ,Non-toxic
same,Activity,HCC1428 [16],inactive
same,Activity,[17],Non-toxic
same,Activity,HCC1428 [18],Active
same,Activity,HCC1428 [19],Active
same,Activity,MCF-10F [20],inactive
same,Activity,HCC1428 [21],Active
same,Activity,HCC1428 [22],Active; Most Pronounced Effect Observed
same,Activity,CAMA-1 [23],Active
same,Activity,HCC1500 [24],inactive
same,Activity,CAMA-1 [25],Active
same,Activity,MCF-10F [26],inactive
same,Activity,Mitochondrial membrane,Active
same,Activity,CAMA-1 [27],inactive
same,Activity,MCF-10F [28],inactive
same,Activity,ZR-75-30 [29],Active
same,Activity,HCC1428 [30],Active
